Data: the supplement of paper PMC9938120

What was measured:
Test in all cases: drug sensitivity score (DSS3, normalised partial AUC of % inhibition dose-response) (DSS (score)); higher = more sensitive (stronger inhibition of viability); extreme values may be limits of the assay
FMOC03 = patient-derived mucinous ovarian cancer cells; conditions: 72 h; library: FO5A; assay format: 2D, 384-well, CellTiter-Glo
Outline: (§1)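 The drug sensitivity score is calculated as a partial area under the percent-inhibition dose-response curve, divided by the log of the upper asymptote; higher scores mean more sensitive. For this score, early-passage (under 10) patient-derived ovarian cancer cells were exposed on 384-well flat clear-bottom plates to compounds at five concentrations across a 10,000-fold range for 72 h at 37 °C, 5% CO2. Viability was read with CellTiter-Glo and processed in Breeze.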

FMOC22 = patient-derived mucinous ovarian cancer cells; conditions: 72 h; library: FO5A; assay format: 2D, 384-well, CellTiter-Glo
Outline: as §1

FMOC24 = patient-derived high-grade serous ovarian cancer cells; conditions: 72 h; library: FO5A; assay format: 2D, 384-well, CellTiter-Glo
Outline: as §1

FMOC06 = patient-derived mucinous ovarian cancer cells; conditions: 72 h; library: FO5A; assay format: 2D, 384-well, CellTiter-Glo
Outline: as §1

FMOC27 = patient-derived low-grade serous ovarian cancer cells; conditions: 72 h; library: FO5A; assay format: 2D, 384-well, CellTiter-Glo
Outline: as §1

FMOC02_2 = patient-derived low-grade serous ovarian cancer cells; conditions: 72 h; library: FO5A; assay format: 2D, 384-well, CellTiter-Glo
Outline: as §1

FMOC14 = patient-derived high-grade serous ovarian cancer cells; conditions: 72 h; library: FO5A; assay format: 2D, 384-well, CellTiter-Glo
Outline: as §1

FMOC25_1 = patient-derived low-grade serous ovarian cancer cells; conditions: 72 h; library: FO4B; assay format: 2D, 384-well, CellTiter-Glo
Outline: as §1

FMOC11 = patient-derived high-grade serous ovarian cancer cells; conditions: 72 h; library: FO5A; assay format: 2D, 384-well, CellTiter-Glo
Outline: as §1

FMOC02_1 = patient-derived low-grade serous ovarian cancer cells; conditions: 72 h; library: FO5A; assay format: 2D, 384-well, CellTiter-Glo
Outline: as §1

FMOC25_2 = patient-derived low-grade serous ovarian cancer cells; conditions: 72 h; library: FO5A; assay format: 2D, 384-well, CellTiter-Glo
Outline: as §1

FMOC09 = patient-derived high-grade serous ovarian cancer cells; conditions: 72 h; library: FO5A; assay format: 2D, 384-well, CellTiter-Glo
Outline: as §1

FMOC04 = patient-derived high-grade serous ovarian cancer cells; conditions: 72 h; library: FO5A; assay format: 2D, 384-well, CellTiter-Glo
Outline: as §1

FMOC28 = patient-derived low-grade serous ovarian cancer cells; conditions: 72 h; library: FO5A; assay format: 2D, 384-well, CellTiter-Glo
Outline: as §1

FMOC17 = patient-derived low-grade serous ovarian cancer cells; conditions: 72 h; library: FO5A; assay format: 2D, 384-well, CellTiter-Glo
Outline: as §1

FMOC02_3 = patient-derived low-grade serous ovarian cancer cells; conditions: 72 h; library: FO5A; assay format: 2D, 384-well, CellTiter-Glo
Outline: as §1

Row | SMILES | drug sensitivity score (FMOC03) | drug sensitivity score (FMOC22) | drug sensitivity score (FMOC24) | drug sensitivity score (FMOC06) | drug sensitivity score (FMOC27) | drug sensitivity score (FMOC02_2) | drug sensitivity score (FMOC14) | drug sensitivity score (FMOC25_1) | drug sensitivity score (FMOC11) | drug sensitivity score (FMOC02_1) | drug sensitivity score (FMOC25_2) | drug sensitivity score (FMOC09) | drug sensitivity score (FMOC04) | drug sensitivity score (FMOC28) | drug sensitivity score (FMOC17) | drug sensitivity score (FMOC02_3)
1 | CC(=O)c1c(C)c2cnc(Nc3ccc(N4CCNCC4)cn3)nc2n(C2CCCC2)c1=O [Palbociclib] | 2.7 | 0.5 | 2.95 | 2.5 | 1.1 | 4.9 | 1.6 | 2.5 | 1.4 | 3.8 | 5.2 | 0.5 | 0.65 | 3.9 | 0.7 | 6.2
2 | COc1ccc(COc2cc3oc(=O)c4cc(C(C)O)ccc4c3cc2OC)cc1 (stereo not drawn) [Palomid-529] | 0 | 0 | 0 | 0 | 0 | 2.2 | 0 | 0 | 0.4 | 0 | 0.1 | 0.4 | 0 | 1.4 | 0 | 0
3 | Cc1ccc(Nc2nccc(N(C)c3ccc4c(C)n(C)nc4c3)n2)cc1S(N)(=O)=O [Pazopanib] | 0 | 0 | 3.8 | 0 | 0.6 | 0.4 | 0 | 1.1 | 0 | 1.3 | 3 | 0 | 0 | 0 | 0 | 1.5
4 | OC[C@H]1O[C@@H](n2cnc3c2N=CNC[C@H]3O)C[C@@H]1O [Pentostatin] | 0 | 0 | 0 | 0 | 0 | 0 | 0 | 0 | 0 | 0 | 0 | 0 | 0 | 0 | 0 | 0
5 | CCCCCCCCCCCCCCCCCCOP(=O)([O-])OC1CC[N+](C)(C)CC1 [Perifosine] | 0 | 0 | 3.35 | 0.1 | 0 | 0 | 0 | 0 | 0 | 0 | 0.5 | 0 | 0 | 0 | 0 | 0
6 | FC(F)(F)c1ccc(CNc2ccc(Cc3c[nH]c4ncc(Cl)cc34)cn2)cn1 [Pexidartinib] | 0 | 0.3 | 1.3 | 0.9 | 0 | 2.5 | 0 | 1.6 | 2.6 | 3.9 | 0 | 4.1 | 0.1 | 0.1 | 1.4 | 3.1
7 | CC[C@@H]1C(=O)OC[C@@H]1Cc1cncn1C [Pilocarpine] | 0 | 0 | 2.65 | 0 | 0 | 0.3 | 0 | 0 | 0 | 0 | 0 | 0 | 0 | 0 | 0 | 0
8 | CC(C)N(C[C@H]1O[C@@H](n2cnc3c(N)ncnc32)[C@H](O)[C@@H]1O)[C@H]1C[C@@H](CCc2nc3cc(C(C)(C)C)ccc3[nH]2)C1 [Pinometostat] | 0 | 0 | 0 | 0 | 0 | 0 | 0 | 0 | 0 | 0 | 0.2 | 0 | 0 | 2.1 | 0 | 0
9 | NCCNc1ccc(NCCN)c2c1C(=O)c1ccncc1C2=O [Pixantrone] | 0 | 0 | 0 | 0 | 0 | 0 | 0 | 0.7 | 1.7 | 0 | 1.8 | 0 | 0.2 | 1.6 | 0.9 | 1.5
10 | c1cc(CN2CCCNCCNCCCNCC2)ccc1CN1CCCNCCNCCCNCC1 [Plerixafor] | 0 | 0 | 0 | 0 | 0 | 0 | 0 | 0 | 0 | 0 | 0 | 0 | 0 | 0 | 0 | 0
11 | Nc1cccc2c1C(=O)N(C1CCC(=O)NC1=O)C2=O (stereo not drawn) [Pomalidomide] | 0 | 0 | 0 | 0 | 0 | 0 | 0 | 0 | 0 | 0 | 0 | 0 | 0 | 0 | 0 | 0
12 | CC[C@H](C)C(=O)O[C@H]1C[C@H](O)C=C2C=C[C@H](C)[C@H](CC[C@@H](O)C[C@@H](O)CC(=O)O)[C@H]21 [Pravastatin] | 0 | 0 | 0.35 | 0.8 | 0 | 0 | 0 | 0 | 0 | 0 | 0 | 0 | 0 | 0 | 0 | 0
13 | C[C@]12C=CC(=O)C=C1CC[C@@H]1[C@@H]2[C@@H](O)C[C@@]2(C)[C@H]1CC[C@]2(O)C(=O)CO [Prednisolone] | 0 | 0 | 0.65 | 0.7 | 0 | 0 | 0 | 0 | 0 | 0.1 | 0 | 0 | 0 | 0 | 0 | 0
14 | CC(C)(C)c1cc(NC(=O)Nc2ccc(-c3cn4c(n3)sc3cc(OCCN5CCOCC5)ccc34)cc2)no1 [Quizartinib] | 0.8 | 0 | 3.85 | 0.3 | 0.5 | 0.7 | 0 | 0.7 | 0 | 2 | 0.6 | 0 | 0.45 | 0.3 | 1 | 0.6
15 | Nc1cc(F)ccc1NC(=O)/C=C/c1cnn(C/C=C/c2ccccc2)c1 [RGFP966] | 2.9 | 1.4 | 2.9 | 2 | 0.6 | 2.9 | 1.9 | 0 | 3.2 | 3.1 | 2.5 | 0 | 0.6 | 4.6 | 0.9 | 3.5
16 | Cc1cnc(NC(=O)Nc2cc(Br)c(C)cc2OC[C@@H]2CNCCO2)cn1 [Rabusertib] | 0 | 0 | 3.6 | 0.2 | 0 | 0 | 3.8 | 1 | 2 | 2.2 | 2 | 0 | 1.7 | 0 | 1.1 | 0.8
17 | CC(C)(C)Cn1c(N)nc2ccc(-c3[nH]c(C(C)(C)C)nc3-c3ccc(F)cc3)nc21 [Ralimetinib] | 2.7 | 0.4 | 1.95 | 3.1 | 3.2 | 4.3 | 2.2 | 1.1 | 6.5 | 6.6 | 3.4 | 1.9 | 1.05 | 1.1 | 4.4 | 3.4
18 | O=C(c1ccc(OCCN2CCCCC2)cc1)c1c(-c2ccc(O)cc2)sc2cc(O)ccc12 [Raloxifene] | 0.7 | 1.2 | 8.45 | 4.5 | 0.2 | 5.8 | 2.6 | 1.7 | 2.9 | 5.5 | 3.7 | 0.7 | 1.95 | 0 | 1.8 | 4.5
19 | CNC(=O)c1cc(Oc2ccc(NC(=O)Nc3ccc(Cl)c(C(F)(F)F)c3)c(F)c2)ccn1 [Regorafenib] | 3.7 | 4 | 1.9 | 2.3 | 0.8 | 2 | 2.6 | 0.3 | 2.6 | 5.2 | 0.3 | 1.3 | 0 | 2.9 | 1.9 | 2.6
20 | CN(C)C(=O)c1cc2cnc(Nc3ccc(N4CCNCC4)cn3)nc2n1C1CCCC1 [Ribociclib] | 0.5 | 0 | 1.8 | 0.6 | 0.6 | 1.8 | 0 | 0 | 0 | 3.1 | 0.8 | 0 | 0.05 | 1.7 | 0.3 | 4.4
21 | O=C(CCCCCCNC(=O)c1cnc(N(c2ccccc2)c2ccccc2)nc1)NO [Rocilinostat] | 5.1 | 4.3 | 5.4 | 3.5 | 4.8 | 3 | 4.5 | 2.4 | 4.3 | 4.9 | 6.7 | 0.8 | 3.2 | 0.9 | 0.7 | 5.2
22 | CNCc1ccc(-c2[nH]c3cc(F)cc4c3c2CCNC4=O)cc1 [Rucaparib] | 0 | 0 | 12.9 | 0 | 1.7 | 2.1 | 0.3 | 0.5 | 0 | 2.1 | 2.4 | 0 | 0 | 1.9 | 3.6 | 3.1
23 | N#CC[C@H](C1CCCC1)n1cc(-c2ncnc3[nH]ccc23)cn1 [Ruxolitinib] | 0 | 0 | 1.6 | 0 | 0 | 0.3 | 0 | 0 | 0 | 0.5 | 0 | 0 | 0 | 0 | 0 | 0
